Laboratory results published in patent US20020107197A1, “Ligands for G protein coupled receptors and methods of using them” (priority 2000, published 2002).
Bridges are numbered along the chain shown (N, C = ends). Where no end group is shown, it is not given here.

What was measured:
[1] = system: vector-transfected HEK293 cells; assay: SRE luciferase reporter in vector-transfected HEK293 cells; format: cell-based, human
Method: (§1) The serum-response element (SRE) reporter system is a sensitive assay for receptors of lipid factors (An et al. (1998) J Biol Chem 273, 7906-7910; An et al. (1999) Mol Pharmacol 55, 787-794). The SRE reporter system used herein (pSRE-Luc) was a gift from Dr. Songzhu An (UCSF), or may be purchased from Stratagene (La Jolla, Calif.). Both systems give identical results. HEK293 and HEK293GPR4 cells were cultured in RPMI1640 with 10% FBS in 10 cm dishes to ˜85% confluence. To the cells in each dish, pSRE-Luc (10 μg) was transfected in the presence of 60 μl LipofectAMINE reagent. Cells were seeded in 96-well plates 16 h after transfection, incubated for another 24 h in RPMI1640 with 10% FBS, and starved in serum-free medium for 16 h. SPC (dissolved in PBS to 10 mM) and other lipids (LPCs were dissolved in 70% ethanol. Other lipids were dissolved in PBS, 70-95% ethanol, or 100% MeOH) were diluted in serum free RPMI 1640 and added to the cells, followed by a 10 h incubation. Luciferase activity was measured in Microlite™ 1 plates (DYNEX Technologies, Inc., Virginia) using 60 μl of cell lysate and 20 μl luciferase substrate. PTX (100 ng/ml) was added during the 16 h serum starvation period and pcDNA1-C3 (encoding the C3-exoenzyme, 2 μg) was co-transfected with pSRE-Luc (10 μg). All experiments were performed in quadruplicate and were repeated at least three times. The Student's t test was performed using the GraphPad Instat software (San Diego, Calif.). p<0.05 was considered to be statistically significant.

GPR4 [2] = target: T1, GPR4 (Homo sapiens, UniProt P46093); assay: Radioligand binding to homogenates of GPR4-transfected CHO cells; details: cold competitors, GPR4-transfected CHO cell homogenates
T1 construct: were used to generate full length GPR4, which was digested with EcoRI and Xba I and cloned into the pBs3HA vector; expressed in transfected cells
Method: (§2) To characterize the binding of SPC and LPC to GPR4 and TDAG8, we conducted radioligand binding assays. CHO cells were chosen for GPR4 binding assays, since HEK293 cells express relatively high levels of endogenous GPR4. CHO cells stably transfected with empty vector or GPR4 were serum starved for 20 h, then collected after exposure to 2 mM EDTA in PBS. The pelleted cells were stored at −80° C. until use. Binding assays were performed essentially as described previously (Xu et al. (2000) Nat Cell Biol 2, 261-267), except binding was performed at 4° C. Briefly, frozen cells (10^6 cells/ml) were homogenized in a binding buffer. Assays were performed in 96-well plates in triplicate with 100 μl cell homogenate (equivalent to 10^5 cells/well). Different amounts of [^3H]SPC or [^3H]16:0-LPC were added to the cell homogenates in 50 μl of binding buffer, in the presence or absence of cold SPC or 16:0-LPC, or other competitors. The plates were incubated at 4° C. for 120 min, unless otherwise indicated. Cell-bound [^3H]SPC or [^3H]LPC was collected onto a filter (Printed Filtermat A, Wallac, Gaithersburg, Md.) using an automated cell harvester (HARVESTER 96, Tomtec, Orange, Conn.). Specific binding was calculated by subtraction of nonspecific binding (binding detected in the presence of 100-fold excess unlabeled SPC or 16:0-LPC) from the total binding.
Cell homogenates were used for binding assays. Binding was conducted at 4° C. for 120 min or as indicated. [^3H]SPC and [^3H]16:0-LPC specifically bound to cell homogenates from GPR4-transfected CHO cells in a time-dependent manner and reached equilibrium after 60 min incubation at 4° C. […] The maximum binding capacities for SPC and 16:0-LPC were 996 fmole/10^5 cells for SPC and 1,528 fmole/10^5 cells for 16:0-LPC. […] Binding assays using [^3H]18:0-LPC gave similar results. We also tested the four glycosphingolipids, Psy, Glu-Sph, Gal-Cer, and Lac-Cer, for their ability to compete for the binding of [^3H]SPC and [^3H]16:0-LPC to GPR4.

TDAG8 [3] = target: T2, TDAG8 (Homo sapiens, UniProt Q8IYL9); assay: SRE luciferase reporter in TDAG8-transfected HEK293 cells; format: cell-based; details: TDAG8 cotransfection
T2 construct: expressed in transfected cells

GPR4 [4] = target: T1, GPR4; assay: Cell migration in modified Boyden chamber, GPR4-ires-GFP vs GFP Swiss 3T3 cells; format: cell-based; details: for chemokinetic assay: cell motility vs controls: lipid 100 nM in both upper and lower chambers, GFP or GFP-GPR4 Swiss 3T3 cells
Method: Chemotaxis was measured in a modified Boyden chamber assay. Briefly, different lipids were added to the lower chambers. GPR4-ires-GFP- and GFP-Swiss 3T3 cells were serum starved for 4 h, trypsinized, and seeded in the upper chambers of Boyden-transwell plates (Corning Inc., Corning, N.Y.). The chambers were incubated for 6 to 8 h. The number of cells that migrated to the lower face of the membrane was counted in 4 random fields. Data are represented as the average ±SD of three independent experiments. For the chemokinetic assay, the same concentrations of lipids were added to both the upper and lower chambers. For Rho inhibition studies, C3-exoenxyme was transiently transfected into Swiss 3T3 cells and cell migration assays were performed 48 hours later.

GPR4 [5] = target: T1, GPR4; assay: SRE luciferase reporter in GPR4-transfected HEK293 cells; format: cell-based; details: GPR4 cotransfection
Method: as §1

TDAG8 [6] = target: T2, TDAG8; assay: TDAG8 receptor internalization; format: cell-based
From the text: G protein coupled receptors undergo agonist-dependent desensitization and internalization.

TDAG8 [7] = target: T2, TDAG8; assay: Binding of phospholipids to TDAG8
Method: as §2
Using functional and binding assays, we have identified the ligands for TDAG8.

HEY ovarian cancer cells = assay: DNA synthesis / growth of HEY ovarian cancer cells with SPC and phage preparations; format: cell-based, human; details: phage mixed with SPC, 30 min incubation
Method: To determine if these selected phage clones were capable of blocking a biological effect of SPC, we mixed phage preparations with SPC. After a 30 min incubation, this mixture was added to HEY cells and its effect on SPC-induced cell proliferation was tested. If a phage clone was carrying a specific sequence which binds to SPC, the addition of the phage to SPC could block the effect of SPC on HEY cells.

GPR4 [8] = target: T1, GPR4; assay: ERK MAP kinase activation (phospho-ERK Western blot) in GPR4-infected Swiss 3T3 cells; format: cell-based; details: GPR4-ires-GFP vs GFP Swiss 3T3 cells; SPC and LPC 100 nM
Method: MAP kinases are key signaling intermediates of DNA synthesis and cell proliferation. Swiss 3T3 cells were infected with MSCV GPR4-ires-GFP or MSCV ires-GFP, and subsequently cells sorted by FACS for positive expression of GFP as described previously (Kabarowski et al. (2000) Proc Natl Acad Sci USA. 97, 12109-12114). Cells were plated in 6-well plates in DMEM containing 5% FBS, serum-starved overnight, and then treated lipids in DMEM for the indicated times. Cells were lysed on ice in RIPA buffer containing 50 mM Tris-HCl, pH 7.5, 1% Nonidet P-40, 0.5% deoxycholate,0.1% SDS, 150 mM NaCl, 2 mM EGTA, 25 mM sodium fluoride, 1 mM sodium orthovanadate, and 1× protease inhibitors (Sigma P8340). Lysates containing equal amounts of protein were separated on 10% SDS-polyacrylamide gels and transferred onto nitrocellulose membranes. Antibodies against phosphorylated ERK1/2 (Cell Signaling Technologies; Beverly, Mass.) were used to probe the membrane and the ECL system (Amersham) was used for detection. To normalize the amounts of protein loaded in each lane, membranes were stripped and re-probed with antibodies against total ERK (Cell Signaling Technologies). In some experiments, cells were pretreated with 100 ng/ml PTX for 12-16 h prior to SPC and LPC stimulation.

GPR4 [9] = target: T1, GPR4; assay: Internalization of GPR4-GFP in HEK293 cells (confocal microscopy); format: cell-based; details: 1 μM lipid, 37° C., GPR4-GFP HEK293 cells
Method: pGPR4-GFP stably expressing HEK293 cells were cultured in 6 cm tissue culture dishes in RPMI1640 with 10% FBS. After 16-24 h serum starvation, cells were treated with different lipids at 37° C. for 2 h. Cells were washed with cold PBS and fixed with 4% paraformaldehyde in PBS. The subcellular localization of GPR4-GFP protein was visualized under a Leica TV confocal fluorescence microscope with a 63× oil immersion lens (Wetzler, Heidelberg, Germany). The excitation and emission wavelengths were 488 nm and 515-540 nm, respectively.
G protein coupled receptors undergo agonist-dependent desensitization and internalization. When HEK293 cells are transfected with the pEGFP-N1 vector, GFP protein is expressed in the cytosol of the cells. The GPR4-GFP and TDAG8-GFP fusion proteins, on the other hand, was expressed only on the plasma membrane.

T2 sequence (Q8IYL9 whole entry): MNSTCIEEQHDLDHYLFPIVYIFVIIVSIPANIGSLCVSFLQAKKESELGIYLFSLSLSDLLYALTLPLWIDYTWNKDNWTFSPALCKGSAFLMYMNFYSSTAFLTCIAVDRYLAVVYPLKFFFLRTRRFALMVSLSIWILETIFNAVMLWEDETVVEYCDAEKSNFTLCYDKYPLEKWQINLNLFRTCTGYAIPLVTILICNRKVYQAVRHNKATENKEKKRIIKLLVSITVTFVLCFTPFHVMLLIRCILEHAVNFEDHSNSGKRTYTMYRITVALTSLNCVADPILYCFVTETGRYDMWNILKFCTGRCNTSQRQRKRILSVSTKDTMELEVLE
T1 sequence (P46093 whole entry): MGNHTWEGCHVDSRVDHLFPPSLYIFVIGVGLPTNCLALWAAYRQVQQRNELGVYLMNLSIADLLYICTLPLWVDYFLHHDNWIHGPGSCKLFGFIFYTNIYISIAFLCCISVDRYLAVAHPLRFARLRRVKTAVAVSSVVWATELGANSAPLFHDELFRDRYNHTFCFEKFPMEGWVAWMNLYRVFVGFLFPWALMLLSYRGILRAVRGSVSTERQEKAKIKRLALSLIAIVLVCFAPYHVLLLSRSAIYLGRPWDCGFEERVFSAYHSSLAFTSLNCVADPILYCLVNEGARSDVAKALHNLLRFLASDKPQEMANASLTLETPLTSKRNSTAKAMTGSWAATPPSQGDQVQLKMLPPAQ

Compound | transcriptional activation of SRE (in words) [1] | competition for binding of [3H]SPC and [3H]16:0-LPC to GPR4 (GPR4 [2]) | transcriptional activation of SRE (in words) (TDAG8 [3]) | cell migration in GPR4- vs. vector-transfected cells (in words) (GPR4 [4]) | chemokinetic assay: cell motility vs controls (GPR4 [4]) | transcriptional activation of SRE (in words) (GPR4 [5]) | TDAG8 receptor internalization (TDAG8 [6]) | binding to TDAG8 (TDAG8 [7]) | effect of phage on the growth inhibitory effect of SPC (HEY ovarian cancer cells) | effect of phage on the growth inhibitory effect of SPC (HEY ovarian cancer cells; listed as clone 414) | effect of phage on the growth inhibitory effect of SPC (HEY ovarian cancer cells; listed as phage 414) | GPR4-dependent ERK activation (in words) (GPR4 [8]) | internalization of GPR4 (GPR4 [9])
lysophosphatidic acid [LPA] | induced significant transcriptional activation of SRE | not | not altered | did not alter cell migration | did not show a significant effect | not altered | – | – | – | – | – | – | –
CCCCCCCCCCCCCCCCOC[C@@H](O)COP(=O)([O-])OCC[N+](C)(C)C [lyso-PAF] | – | not | – | – | – | none of them induced significant transcriptional activation of SRE | induced TDAG8 receptor internalization | able to bind to TDAG8 | – | – | – | – | –
Cys-His-Thr-Gln-Ala-Asp-Ser-Cys (CHTQADSC; disulfide 1-8) [#414] | – | – | – | – | – | – | – | – | able to inhibit the growth inhibitory effect of SPC on HEY cells | inverted the growth inhibitory effect of SPC | blocked the growth inhibitory effect of SPC on DNA synthesis | – | –
CCCCCCCCCCCCC/C=C/[C@@H](O)[C@@H](N)COP(=O)(O)O [S1P, sphingosine-1-phosphate] | induced significant transcriptional activation of SRE | not | not altered | did not alter cell migration | slightly inhibited | not altered | – | – | – | – | – | activation was independent of GPR4 expression | –
platelet activating factor [PAF] | – | not | – | did not alter cell migration | slightly enhanced | none of them induced significant transcriptional activation of SRE | induced TDAG8 receptor internalization | able to bind to TDAG8 | – | – | – | activation was independent of GPR4 expression | not
